Experiments:
[1] = Dissolution of asphaltenes; assay type: physicochemical
[2] = Thermal stability; assay type: physicochemical; conditions: 200° C.
[3] = room temperature; cited from earlier work

Structure (SMILES): O=C1CCCN1C1CCCCC1 [NCHP, N-cyclohexyl-2-pyrrolidone]
- Asphaltenes dissolve in the compound [1]: dissolve

Structure (SMILES): CCCCCCCCCCCCN1CCCC1=O [NDDP, N-dodecyl-2-pyrrolidone]
- Asphaltenes dissolve in the compound [1]: dissolve

Structure (SMILES): CCCCCCCCN1CCCC1=O [NOP, N-octyl-2-pyrrolidone]
- Asphaltenes dissolve in the compound [1]: dissolve
- Thermal stability [2]: stable for at least one week
- Solubility in water [3]: about 1 g/L

— patent publication US11001745B2, “Hydrocarbon recovery composition, method, and system” (THE SASKATCHEWAN RESEARCH COUNCIL, priority 2016, dated 2021)
